Read-outs that look alike come from different tables or passages of the source.
Key:
[1] = test system: highly insulin-resistant T2DM patients poorly controlled with insulin plus metformin and/or thiazolidinediones; settings: for Patients who required up-titration of insulin: throughout the 12-week double-blind period, placebo arm 4 patients; for Patients exposed to study medication for ≧84 days prior to insulin up-titration: versus 39.1% in the placebo arm
Method: Criteria for management of hyperglycemia were determined by fasting plasma glucose (FPG) measurements. For any FPG level >240 mg/dL at weeks 4 and 6, >220 mg/dL at week 8, or >200 mg/dL at week 10, the patient would be scheduled for a follow-up visit in 3 to 5 days. If FPG was still above the threshold at follow-up, a visit was scheduled in order to increase the insulin dose as clinically indicated. Patients who further lacked glycemic control despite up-titration, or whose modified insulin dose exceeded baseline, were discontinued from blinded treatment and entered into follow-up.
All patients were on insulin-sensitizer therapy for at least 6 weeks prior to enrollment and insulin-based therapy for at least 12 weeks prior to enrollment. The study protocol defined insulin-sensitizer therapy as metformin (stable dose ≧1000 mg) and/or pioglitazone (stable dose ≧30 mg) or rosiglitazone (stable dose 4 mg). Insulin-based therapy was defined as subcutaneous insulin for at least 12 weeks prior to enrollment, with 2 minimum insulin daily dose equivalent to 50 units (median 85 to 93 units across all study arms) of U100 insulin per day. The insulin regimen must have been stable for at least 6 weeks. In addition to 10 mg dapagliflozin or 20 mg dapagliflozin daily or placebo, 74.6% of patients received metformin (≧1000 mg daily) plus insulin; 16.9% of patients received metformin (≧1000 mg daily) plus pioglitazone (≧30 mg daily) or rosiglitazone (4 mg daily) plus insulin and 8.5% of patients received pioglitazone (≧30 mg daily) or rosiglitazone (4 mg daily) plus insulin.
Patients in Cohort 1 were evaluated for safety only. Patients in Cohort 2 were evaluated for safety and efficacy. The primary efficacy measure was change from baseline in HbAlc, at week 12, last observation carried forward (LOCF). If no week 12 assessment was available, the last observation prior to week 12 was used. Secondary efficacy measures included changes from baseline at week 12 (LOCF) in FPG and insulin dose, the proportion of patients achieving a decrease in HbAlc>0.5% from baseline at week 12 (LOCF), and the proportion of patients achieving HbAlc<7% at week 12 (LOCF). Tertiary endpoints included changes from baseline in total body weight and in postprandial glucose (PPG) measured by an oral glucose tolerance test (OGTT).
Patients in Cohort 2 were evaluated for safety and efficacy. The primary efficacy measure was change from baseline in HbAlc at week 12, last observation carried forward (LOCF). The analysis was done excluding data after up-titration of insulin. If no week 12 assessment was available, the last observation prior to week 12 was used.
For Cohort 2, the sample size target of 22 patients per treatment group was chosen to allow for the calculation of 95% confidence intervals for the primary endpoint with a half-width of 0.42% for each treatment group. This assumed a 1% standard deviation for the primary endpoint in each of the dapagliflozin and placebo arms. With the same assumption, the half-width of a 95% confidence interval for the difference between any two treatment mean changes was estimated to be 0.59%. The primary efficacy data set consisted of all randomized patients who took at least one dose of double-blind study medication during the treatment phase. The analyses of the efficacy variables (except change from baseline in insulin dose) were done excluding data after up-titration of insulin. The analyses for changes from baseline in HbAlc, FPG, insulin dose, and total body weight at week 12 (LOCF) were performed using an analysis of covariance (ANCOVA) model with treatment group as an effect and baseline value as a covariate. Point estimates and 95% confidence intervals were calculated for mean changes within each treatment group and for differences in mean changes between the dapagliflozin and placebo groups.

[2] = test system: highly insulin-resistant T2DM patients poorly controlled with insulin plus metformin and/or thiazolidinediones; settings: for 24-hour urinary glucose, increase / Standing diastolic blood pressure, mean change / Standing systolic blood pressure, mean change / Serum hematocrit, median increase from baseline / Urinary glucose excretion, mean change from baseline: week 12; for Glomerular filtration rate, change compared to baseline: end of treatment; for Urinary glucose excretion, mean change from baseline: placebo −1.5
Text: (§1) This was a randomized, single- and double-blind, three-arm parallel group, placebo-controlled trial to determine if dapagliflozin effectively lowers hyperglycemia in highly insulin-resistant T2DM patients poorly controlled with insulin plus metformin and/or thiazolidinediones. The trial consisted of a qualification period of 10 to 21 days, a treatment phase of 12 weeks, and a follow-up phase of 4 weeks. During qualification and until day 1, patients maintained their stable dose of open-label OADs, as well as their stable dose of prescribed insulin.
(§2) The treatment phase utilized an adaptive trial design with two cohorts: Cohort 1, the insulin dose-setting group; and Cohort 2, the main experimental group. The purpose of Cohort 1 was to determine the ideal starting dose of insulin least likely to cause hypoglycemia when dapagliflozin would be added. In Cohort 1, four patients were assigned to 20 mg single-blind dapagliflozin on day 1 after having their insulin dose decreased by 50%, the greatest decrement possible in this adaptive design. These patients underwent 48-hour continuous blood glucose monitoring (CGM) during the first week of treatment. Pursuant to the protocol, if at least one patient recorded a CGM value ≦100 mg/dL, confirmed by self-monitoring of blood glucose (SMBG), the total daily insulin dose for patients in Cohort 2 would be set at 50% of their usual dose that is, at an average of 52 to 54 units of insulin daily, and lesser dose reductions of insulin would not be tested. […] Patients in Cohort 2 were randomized on day 1 in a 1:1:1 ratio to double-blind placebo, 10 mg dapagliflozin or 20 mg dapagliflozin once daily, in addition to their open-label OAD(s) and 50% of their usual daily insulin, that is an average of 52 to 54 units of insulin daily.
(§3) Safety outcomes were assessed by treatment-emergent adverse events, vital signs, ECGs and laboratory measurements, including 24-hour urine collections for volume and electrolytes.

[3] = test system: highly insulin-resistant T2DM patients poorly controlled with insulin plus metformin and/or thiazolidinediones; settings: for Adverse events, % of patients: placebo 65.2%; for Patients with genital tract infections: double-blind period, placebo one; for Events of pollakiuria, patients: placebo four patients; for Patients who reported episodes of hypoglycemia: placebo three patients
Text: as §1, §2
Patients were scheduled for visits at weeks 1, 2, 4, 6, 8, 10, and 12 of treatment, and performed SMBG 5 times daily during the 3 to 5 days prior to visits. No dose modifications of blinded study medication or OAD(s) were allowed during the treatment phase. Guidelines were in place throughout the trial for managing hypo- and hyperglycemia. […] Additional down-titration could be implemented as clinically indicated to manage the risk of hypoglycemia.
as §3

CCOc1ccc(Cc2cc([C@@H]3O[C@H](CO)[C@@H](O)[C@H](O)[C@H]3O)ccc2Cl)cc1 [Dapagliflozin, (2S,3R,4R,5S,6R)-2-(4-chloro-3-(4-ethoxybenzyl)phenyl)-6-(hydroxymethyl)tetrahydro-2H-pyran-3,4,5-triol]
Patients with ↓ HbA1c ≧ 0.5%, No., response ([1]; Dapagliflozin 20 mg + insulin + OAD, week 12 LOCF, of 23 patients, excludes data after insulin up-titration): 15
HbA1c, mean (SD), End of Double-blind (Week 12 LOCF) ([1]; Dapagliflozin 20 mg once daily + insulin (50% of usual dose) + OAD, Cohort 2, excludes data after insulin up-titration): 7.8 (0.6) %
Patients who required up-titration of insulin ([1]; dapagliflozin 10 mg arm (n = 24)): 1 patient
Patients exposed to study medication for ≧84 days prior to insulin up-titration ([1]; dapagliflozin 10 mg arm): 66.7%
Patients who required up-titration of insulin ([1]; dapagliflozin 20 mg arm (n = 24)): 3 patients
Patients exposed to study medication for ≧84 days prior to insulin up-titration ([1]; dapagliflozin 20 mg arm): 66.7%
Additional weight loss compared to placebo ([1]; dapagliflozin treatment (dose not distinguished), insulin dose reduced by 50%): -2.5 kg
HbAlc, PPG and weight versus placebo, in words ([1]; insulin-resistant patients who had their baseline insulin reduced 50%): decreased HbAlc, PPG and weight more than placebo
Weight lowering versus placebo, in words ([1]; week 12 (LOCF)): more likely to lower weight than placebo
24-hour urinary glucose, increase ([2]; 10 mg dapagliflozin): ~85 grams per day
Standing diastolic blood pressure, mean change ([2]; 10 mg dapagliflozin): −1.2 mm Hg
Standing systolic blood pressure, mean change ([2]; 10 mg dapagliflozin): −7.2 mm Hg
Supine diastolic blood pressure, mean change ([2]; 20 mg dapagliflozin): −5.8 mm Hg
Supine systolic blood pressure, mean change ([2]; 20 mg dapagliflozin): −5.5 mm Hg
24-hour urinary glucose, increase ([2]; 20 mg dapagliflozin): ~85 grams per day
Standing diastolic blood pressure, mean change ([2]; 20 mg dapagliflozin): −3.9 mm Hg
Standing systolic blood pressure, mean change ([2]; 20 mg dapagliflozin): −6.1 mm Hg
Serum uric acid, median change from baseline ([2]; dapagliflozin 10 mg): -0.30 mg/dL
Glomerular filtration rate, change compared to baseline ([2]; dapagliflozin 10 mg): −0.84 mL/min/1.73 m^2
Mean 24-hour urine output on treatment ([2]; dapagliflozin 10 mg, increased from 1921.0 mL at baseline): 2285.8 mL
Serum hematocrit, median increase from baseline ([2]; dapagliflozin 10 mg): 2.5%
Urinary glucose excretion, mean change from baseline ([2]; dapagliflozin 10 mg): 83.5 g/24 h
Serum uric acid, median change from baseline ([2]; dapagliflozin 20 mg): -0.30 mg/dL
Glomerular filtration rate, change compared to baseline ([2]; dapagliflozin 20 mg): 1.45 mL/min/1.73 m^2
Mean 24-hour urine output on treatment ([2]; dapagliflozin 20 mg, increased from 1808.8 mL at baseline): 2253.1 mL
Serum hematocrit, median increase from baseline ([2]; dapagliflozin 20 mg): 3.05%
Urinary glucose excretion, mean change from baseline ([2]; dapagliflozin 20 mg): 85.2 g/24 h
Adverse events, % of patients ([3]; 10 mg dapagliflozin arm): 75.0%
Patients with genital tract infections ([3]; 10 mg dapagliflozin group): none
Events of pre-renal azotemia ([3]; 10 mg dapagliflozin, patient on enalapril, carvedilol and furosemide, discontinued after eleven days, resolved with oral rehydration): One
Events of pollakiuria, patients ([3]; 10 mg dapagliflozin): two
Adverse events, % of patients ([3]; 20 mg dapagliflozin arm): 66.7%
Patients who reported episodes of hypoglycemia ([3]; 20 mg dapagliflozin group (n = 24)): six
Patients with genital tract infections ([3]; 20 mg dapagliflozin group): five
Events of pollakiuria, patients ([3]; 20 mg dapagliflozin): three
Patients who reported polyuria ([3]; dapagliflozin 10 mg arm): One
Patients with adverse events that led to discontinuation ([3]; dapagliflozin 10 mg arm): One
Patients who reported episodes of hypoglycemia ([3]; dapagliflozin 10 mg group (n = 24)): seven
Cases of microalbuminuria (resulted in discontinuation from the study) ([3]; dapagliflozin 20 mg arm): One
Patients who reported polyuria ([3]; dapagliflozin 20 mg arm): One
Patients with adverse events that led to discontinuation ([3]; dapagliflozin 20 mg arm): One
Patients who experienced a serious adverse event ([3]; dapagliflozin 20 mg group): one
Patients who reported a urinary tract infection ([3]; dapagliflozin 20 mg group): One
Total hypoglycemic events versus placebo, in words ([3]; major/minor episodes were balanced across all groups): more frequently reported with dapagliflozin treatment than with placebo
Deaths, in words ([3]; whole study): no deaths
